Data reported in patent US20140079722A1, “EXTRACELLULAR TARGETED DRUG CONJUGATES” (CENTROSE, LLC, priority 2011, published 2014).
Ends that are not written are not given here.

What was measured:
A549 NSCLC cells = experiment: In vitro normal cell cytotoxicity study, carcinoma comparator line; type: cell-based; settings: Homo sapiens, A549, 72 h
Procedure: In vitro normal cell cytotoxicity. The in vitro cytotoxic activity of M53-PEG24-CEN09-106, PEG24-CEN09-106, M53-PEG24-CEN-319, PEG24-CEN-319, proscillaridin and digitoxin against dysadherin positive primary normal human cells and a dysadherin positive human non-small cell lung carcinoma (NSCLC) cell line were tested and compared. The cells used were primary human renal epithelial cells (HREpC), primary human umbilical vein endothelial cells (HUVEC), primary human umbilical artery endothelial cells (HUAEC), and the A549 NSCLC cells. The primary cells were obtained from PromoCell GmbH, Heidelberg, Germany, and the NSCLC cell line A549 was obtained from ATCC. Primary renal epithelial cells were grown in Renal Epithelial Cell Growth Medium 2 (PromoCell GmbH, Heidelberg, Germany). Primary endothelial cells were grown in Endothelial Cell Growth Medium 2 (PromoCell GmbH, Heidelberg, Germany). […] After 72 hrs of exposure to agent, cell viability was evaluated using the Cell Titer-Glo Luminescent Cell Viability Assay (Promega, Madison, Wis.) according to the manufacturer's instructions. Luminescence measurements were performed using a Wallac Victor^2 Model 1420-041 assay plate reader (Perkin Elmer, Gaithersburg, Md.). EC50 values for each test agent were determined using GraphPad Prism 5 software.

[1] = test system: primary human renal epithelial cells (HREpC); experiment: In vitro normal cell cytotoxicity; type: cell-based; settings: 72 h
Procedure: (§1) In vitro normal cell cytotoxicity. The in vitro cytotoxic activity of M53-PEG24-CEN09-106, PEG24-CEN09-106, M53-PEG24-CEN-319, PEG24-CEN-319, proscillaridin and digitoxin against dysadherin positive primary normal human cells and a dysadherin positive human non-small cell lung carcinoma (NSCLC) cell line were tested and compared. The cells used were primary human renal epithelial cells (HREpC), primary human umbilical vein endothelial cells (HUVEC), primary human umbilical artery endothelial cells (HUAEC), and the A549 NSCLC cells. The primary cells were obtained from PromoCell GmbH, Heidelberg, Germany, and the NSCLC cell line A549 was obtained from ATCC. Primary renal epithelial cells were grown in Renal Epithelial Cell Growth Medium 2 (PromoCell GmbH, Heidelberg, Germany). Primary endothelial cells were grown in Endothelial Cell Growth Medium 2 (PromoCell GmbH, Heidelberg, Germany). The NSCLC cell line was grown in RPMI-1640 (HyClone, Thermo Scientific) supplemented with 10% fetal bovine serum. HREpC, HUVEC, HUAEC, and A549 cells were plated in 384 well plates at 1250, 1875, 2500, and 1250 cells/well (respectively) and allowed to incubate for 24 hrs at 37° C., 5% CO2, and 100% humidity. Various concentrations of conjugates M53-PEG24-CEN09-106 and […] and PEG24-CEN09-106 and […] were added to the wells in a total volume of 5 uL of media and the plates were incubated for an additional 72 hrs. After 72 hrs of exposure to agent, cell viability was evaluated using the Cell Titer-Glo Luminescent Cell Viability Assay (Promega, Madison, Wis.) according to the manufacturer's instructions. Luminescence measurements were performed using a Wallac Victor^2 Model 1420-041 assay plate reader (Perkin Elmer, Gaithersburg, Md.). EC50 values for each test agent were determined using GraphPad Prism 5 software.

[2] = test system: primary human umbilical artery endothelial cells (HUAEC); experiment: In vitro normal cell cytotoxicity; type: cell-based; settings: Homo sapiens, Endothelial cell, 72 h
Procedure: as §1

[3] = test system: primary human umbilical vein endothelial cells (HUVEC); experiment: In vitro normal cell cytotoxicity; type: cell-based; settings: Homo sapiens, 72 h
Procedure: as §1

NSCLC cell line A549 [4] = experiment: In vitro cytotoxicity of M53-PEG24-CEN09-106 drug combinations; type: cell-based; settings: Homo sapiens
Procedure: The studies employed a fixed ratio of the drugs (based on the EC50 values of each alone) across a concentration gradient. Single drug ED50 values were first determined and from those values combination analysis were prepared by 3-fold serial dilutions in 8 steps for all compounds. Combinations were tested using fixed concentration ratios. […] All compound concentrations and combinations were tested in duplicate. Cell culture and cell viability assays were performed as described.

A549 xenograft = A549 xenograft model (cell implant); type: in vivo, Hsd:Athymic Nude-Foxn1nu mice; settings: controls: paclitaxel 15 mg/kg q2dx5; control conjugate (loading 7) 10 mg/kg i.v. q7dx3; A549 xenograft
Procedure: Briefly, to establish a non-small-cell lung cancer disease model, 6×10^6 A549 cells in 200 μL, RPMI1640+50% Matrigel HC (BD Biosciences, San Jose, Calif.) were implanted into the left flank of Hsd:Athymic Nude-Foxn1^nu mice (Harlan, Indianapolis, Ind.). Therapy with antibody-drug conjugates was then initiated when the tumor volume in groups of 5 animals averaged ˜300 mm^3. Treatment using vehicle control, 0.1 and 1 mg/kg M53-PEG24-CEN09-106, and 10 mg/kg control M53-PEG24-CEN09-106 (a control conjugate with a drug loading of 7 drugs per antibody where the antibody's target is not on the cell surface but drug and linker and antibody isotype are the same as M53-PEG24-CEN09-106) were all administered i.v. using the schedule of one injection every 7 days with 3 total injected doses (q7d×3). 15 mg/kg paclitaxel dosed at q2d×5 served as a positive control treatment group. Using this schedule, tumor volumes were measured for each group using calibrated vernier calipers and plotted against first day of tumor implant for 54 days post-implant and 40 days post-initial dose, to produce the graph shown in FIG. 3.

A549 xenografts = experiment: Second A549 xenograft study (tumor fragments); type: in vivo, female HRLN nu/nu mice
Procedure: Briefly, to establish a non-small-cell lung cancer disease model, subcutaneous A549 xenografts were initiated in female HRLN nu/nu mice by implanting 8 mm^3 A549 tumor fragments subcutaneously into the left flank. Tumor growth was monitored, and mice bearing tumors of 60-180 mm^3 were selected for the study. Tumor-bearing mice (n=7 mice/group) with a group average tumor volume of approximately 110 mm^3 were treated i.p. with 5 mgs/kg M53-PEG24-CEN09-106 at q3d×4, 20 mg/kg scillarenin-4-amino-deoxy-L-xylopryanoside (an intermediate in the construction of M53-PEG24-CEN09-106 and known cytotoxin) at q2dx5, and 15 mg/kg paclitaxel at q1d×5. Tumor volumes were measured for each group using calibrated vernier calipers plotted against day of first dose for 100 days to produce the graph shown in FIG. 4.
Paclitaxel at its optimum dosing produced 80% growth inhibition of the tumor when compared to vehicle.

H460 xenograft = H460 xenograft model; type: in vivo, Hsd:Athymic Nude-Foxn1nu mice; settings: H460 xenograft
Procedure: Briefly, to establish a large-cell lung cancer disease model, 1×10^6 H-460 cells in 100 μL RPMI1640+30% Matrigel HC (BD Biosciences, San Jose, Calif.) were implanted into the left flank of Hsd:Athymic Nude-Foxn1^nu mice (Harlan, Indianapolis, Ind.). Therapy was initiated when the tumor size in groups of 5 animals averaged ˜200 mm^3. Treatment using vehicle control, M53-PEG24-CEN09-106 at 0.1 and 1 mg/kg, and 10 mg/kg control M53-PEG24-CEN09-106 (as described above) consisted of multiple i.v. injections using the schedule of one injection every 7 days for 2 injections (q7d×2). Paclitaxel served as a positive control treatment group and was dosed i.v. at 15 mg/kg using the schedule of one injection every 2 days for 5 injections (q2d×5). Using this schedule, tumor volumes were measured for each group using calibrated vernier calipers and plotted against day of tumor implant for 24 days post-implant and 12 days post-initial dose, graphed and shown in FIG. 5.

human dysadherin [5] = biological target: T1, human dysadherin (human, UniProt Q96DB9 22-178); experiment: cell-based or functional assay
T1 chain: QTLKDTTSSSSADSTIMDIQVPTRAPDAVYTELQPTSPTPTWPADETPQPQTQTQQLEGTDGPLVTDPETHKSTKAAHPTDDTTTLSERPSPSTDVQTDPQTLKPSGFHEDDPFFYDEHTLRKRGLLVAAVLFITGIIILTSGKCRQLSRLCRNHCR

human dysadherin [6] = biological target: T1, human dysadherin; experiment: cell-based or functional assay
human dysadherin [7] = biological target: T1, human dysadherin; experiment: cell-based or functional assay
peptide CENP018 = biological target: T2, peptide CENP018 (human, not fully specified); experiment: immunoaffinity chromatography on CENP018 coupled to SulfoLink resin
T2 construct: also called 17
T2 peptide: PTRAPDAVYTELQC

NSCLC cell line A549 [8] = experiment: In vitro activity of chimeric and scFv conjugates against A549; settings: A549 cells; scFv conjugates
Procedure: Cells were incubated with the agent/conjugate for 3 days before cell viability testing. Cell viability testing used the CellTiter-Glo luminescent cell viability assay (Promega, Madison, Wis.).

Molecule: C[C@H]1O[C@@H](O[C@H]2[C@@H](O)C[C@H](O[C@H]3[C@@H](O)C[C@H](O[C@H]4CC[C@@]5(C)[C@H](CC[C@@H]6[C@@H]5CC[C@]5(C)[C@@H](C7=CC(=O)OC7)CC[C@]65O)C4)O[C@@H]3C)O[C@@H]2C)C[C@H](O)[C@@H]1O [Digitoxin]
- EC50 (A549 NSCLC cells): 17 nM
- EC50 [1]: 135 nM
- EC50 [2]: 47 nM
- EC50 [3]: 39 nM

Molecule: CO[C@H]1C[C@@H]2CC[C@@H](C)[C@@](O)(O2)C(=O)C(=O)N2CCCC[C@H]2C(=O)O[C@H]([C@H](C)C[C@@H]2CC[C@@H](OCCO)[C@H](OC)C2)CC(=O)[C@H](C)/C=C(\C)[C@@H](O)[C@@H](OC)C(=O)[C@H](C)C[C@H](C)/C=C/C=C/C=C/1C [Everolimus]
- EC50 (NSCLC cell line A549 [4]; drug alone, A549 cells, read-out: EC50): 11 nM

Molecule: CCN(CC)CCCCNc1ncc2cc(-c3cc(OC)cc(OC)c3)c(NC(=O)NC(C)(C)C)nc2n1 [PD 0173074]
- EC50 (NSCLC cell line A549 [4]; A549): 29000 nM

Molecule: CC(=O)O[C@H]1C(=O)[C@@]2(C)[C@H]([C@H](OC(=O)c3ccccc3)[C@]3(O)C[C@H](OC(=O)[C@H](O)[C@@H](NC(=O)c4ccccc4)c4ccccc4)C(C)=C1C3(C)C)[C@]1(OC(C)=O)CO[C@@H]1C[C@@H]2O [Paclitaxel, reference compound]
- growth inhibition of the tumor compared to vehicle (A549 xenograft): 45%
- growth inhibition of the tumor compared to vehicle (A549 xenografts; 100 days post-initial dose, EDC (loading 3) 5 mg/kg i.p. q3dx4, scillarenin aminoxyloside 20 mg/kg q2dx5, paclitaxel 15 mg/kg q1dx5): 80%
- weight loss (A549 xenografts; same dosing as efficacy arms, second A549 xenograft study): 11%
- weight loss (H460 xenograft; EDC 0.1 mg/kg q7dx2, paclitaxel 15 mg/kg q2dx5): 15%
- growth inhibition of the tumor compared to vehicle (H460 xenograft; controls: paclitaxel 15 mg/kg i.v. q2dx5, control conjugate 10 mg/kg i.v. q7dx2): 78%

Molecule: C[C@@H]1O[C@@H](O[C@@H]2C=C3CC[C@@H]4[C@H](CC[C@]5(C)[C@@H](c6ccc(=O)oc6)CC[C@]45O)[C@@]3(C)CC2)[C@H](O)[C@H](O)[C@H]1O [Proscillaridin]
- EC50 (A549 NSCLC cells): 2.1 nM
- EC50 [1]: 10 nM
- EC50 [2]: 5.6 nM
- EC50 [3]: 5.6 nM

B1: M53-PEG24-CEN09-106 (antibody, V domains shown)
VH: EVQLVESGGGLVQPKGTLKLSCAASGFSFNTHAMNWVRQAPGKSLEWVARTMSKSNNYATYYADSVKDRFIIRADDSQSMLYLQMNNLKTEDTAMYYCVRDDPKRGMDYWGQGTSVTVSS
VL: GIVMSQSPSSLAVSVGEKVTMSCKPSQSLLYSRNQKIYLAWYQQKPGQSPKLLIYWASTRESGVPDRFTGSGSGTDFTLIISSVRAEDLAVYYCQQYYNYPLTFGAGTKLELKR
modifications: PEG24-CEN09-106 on reduced cysteine thiols; positions not given; PEG24-CEN09-106 (scillarenin 4-amino-xyloside PEG24 maleimide linker-drug) on reduced cysteine thiols; positions not given
- EC50, in vitro activity against A549 cells (human dysadherin [5]): 1.9 nM
- EC50, cytotoxicity (CellTiter-Glo cell viability), A375 cells (human dysadherin [6]): 0.4 nM
- EC50, cytotoxicity (CellTiter-Glo cell viability), A549 cells (human dysadherin [6]): 0.2 nM
- EC50, cytotoxicity (CellTiter-Glo cell viability), H460 cells (human dysadherin [6]): 0.3 nM
- EC50, cytotoxicity (CellTiter-Glo cell viability), H929 cells (human dysadherin [6]): 0.1 nM
- EC50, cytotoxicity (CellTiter-Glo cell viability), PANC cells (human dysadherin [6]): 0.3 nM
- EC50, cytotoxicity, A549 cells (drug alone, combination study) (human dysadherin [7]): 0.3 nM

B2: anti-FXYD5 scFv003 (scFv)
scFv: ECQLVESGGGLVQPKGTLKLSCAASGFSFNTHAMNWVRQAPGKSLEWVARTMSKSNNYATYYADSVKDRFIISRDDSQSMLYLQMNNLKTEDTAMYYCVRDDPKRGMDYWGQGTSVTVSSGGGGSGGGGSGGGGSGIVMSQSPSSLAVSVGEKVTMSCKPSQSLLYSRNQKIYLAWYQQKPGQSPKLLIYWASTRESGVPDRFTGSGSGTDFTLIISSVRAEDLAVYYCQQYYNYPLTFGAGTKLELK
notes: Unconjugated scFv, purified from E. coli lysate on CENP018 resin; also called CENscFv003
- binding result (peptide CENP018): binds

B3: scFv-PEG12-CEN09-016: scFv conjugate with PEG12 linker, 1 drug per scFv (conjugate)
scFv: B2 scFv
- EC50 (NSCLC cell line A549 [8]): 9.1 nM

B4: scFv-PEG36-CEN09-016: scFv conjugate with PEG36 linker, 1 drug per scFv (conjugate)
scFv: B2 scFv
- EC50 (NSCLC cell line A549 [8]): 1.1 nM
